Assay results taken from patent US20230084927A1, “GLUCOSE UPTAKE INHIBITORS AND USES THEREOF” (METABOMED LTD., priority 2019, published 2023).
Where two headings read alike, the source gives them in different places.

What was measured:
[1] = tested on: SDH-KO-HRAS cells (SDHB-deficient); experiment: Cellular / differential toxicity assay (CellTiter-Glo, 3 days); assay type: cell-based, murine; conditions: toxicity, SDH-KO cells, 3 days, CellTiter-Glo, read-out: EC50 (uM) SDH-KO-HTAS-C17
In short: (§1)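 Isogenic SDHB-deficient (HRAS-transformed SDH-KO) and SDH-WT cells grown in DMEM-F12 with 1 mM glutamine and 3% FBS, plated with compound (10-point dilution from 10 uM to 0.0065 uM or lower) for 3 days at 37 °C, 5% CO2. Viability by CellTiter-Glo luminescence; EC50 calculated.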

SDH-WT cells = experiment: as above; assay type: cell-based, murine; conditions: toxicity, SDH-WT cells, 3 days, CellTiter-Glo, read-out: EC50 (uM) SDH-WT
In short: as §1

SMILES | EC50 [1] | EC50 (SDH-WT cells) | EC50 ([1]; Mus musculus, 72 h) | EC50 (SDH-WT cells; Mus musculus, 72 h)
CCCCNc1ncnc2c1sc1nc3c(cc12)COC(C)(C)C3 [Compound 217] | 1 to 3 µM | 3 to 10 µM |  | 
CCN(CC)CCNc1ncnc2c1sc1nc3c(cc12)COC(C)(C)C3 [Compound 218] |  |  | > 10 µM | > 10 µM
CCC(C)Nc1nc(C)nc2c1sc1nc3c(cc12)COC(C)(C)C3 (centres unmarked) [Compound 219] |  |  | 3 to 10 µM | > 10 µM
Cc1nc(NCC(C)C)c2sc3nc4c(cc3c2n1)COC(C)(C)C4 [Compound 220] |  |  | > 10 µM | > 10 µM
C=CCNc1ncnc2c1sc1nc3c(cc12)COC(C)(C)C3 [Compound 221] | > 10 µM |  |  | > 10 µM
Cc1nc(NCCCO)c2sc3nc4c(cc3c2n1)COC(C)(C)C4 [Compound 222] |  |  | > 10 µM | > 10 µM
Cc1nc(N2CCOCC2)c2sc3nc4c(cc3c2n1)COC(C)(C)C4 [Compound 223] |  |  | > 10 µM | > 10 µM
CC(C)CNc1ncnc2c1sc1nc3c(cc12)COC(C)(C)C3 [Compound 224] |  |  | > 10 µM | > 10 µM
Cc1nc(NCCN(C)C)c2sc3nc4c(cc3c2n1)COC(C)(C)C4 [Compound 225] |  |  | > 10 µM | > 10 µM
Cc1nc(NCCCN(C)C)c2sc3nc4c(cc3c2n1)COC(C)(C)C4 [Compound 226] |  |  | > 10 µM | > 10 µM
CN(C)CCNc1ncnc2c1sc1nc3c(cc12)COC(C)(C)C3 [Compound 227] |  |  | > 10 µM | > 10 µM
CN(C)CCCNc1ncnc2c1sc1nc3c(cc12)COC(C)(C)C3 [Compound 228] |  |  | > 10 µM | > 10 µM
CCCCNc1nc(C)nc2c1sc1nc3c(cc12)COC(C)(C)C3 [Compound 229] |  |  | 3 to 10 µM | > 10 µM
Cc1nc(NCCN2CCOCC2)c2sc3nc4c(cc3c2n1)COC(C)(C)C4 [Compound 230] |  |  | > 10 µM | > 10 µM
Cc1nc(NCC2CCCO2)c2sc3nc4c(cc3c2n1)COC(C)(C)C4 (centres unmarked) [Compound 231] |  |  | > 10 µM | > 10 µM
CC1(C)Cc2nc3sc4c(NCc5ccco5)ncnc4c3cc2CO1 [Compound 232] |  |  | > 10 µM | > 10 µM
Cc1nc(N2CCCCC2)c2sc3nc4c(cc3c2n1)COC(C)(C)C4 [Compound 233] |  |  | > 10 µM | > 10 µM
CCN(CC)CCNc1nc(C)nc2c1sc1nc3c(cc12)COC(C)(C)C3 [Compound 234] |  |  | > 10 µM | > 10 µM
Cc1nc(NCc2ccc(OC(C)C)cc2)c2sc3nc4c(cc3c2n1)COC(C)(C)C4 [Compound 235] |  |  | > 10 µM | > 10 µM
CC1CCC(C)N(c2ncnc3c2sc2nc4c(cc23)COC(C)(C)C4)C1 (centres unmarked) [Compound 236] |  |  | > 10 µM | > 10 µM

SMILES | EC50 [1] | EC50 (SDH-WT cells) | EC50 ([1]; Mus musculus, 72 h) | EC50 (SDH-WT cells; Mus musculus, 72 h)
Cc1nc(N)c2sc3nc4c(cc3c2n1)COC(C)(C)C4 [Compound 237] |  |  | 3 to 10 µM | > 10 µM
CC1(C)Cc2nc3sc4c(NCCCO)ncnc4c3cc2CO1 [Compound 238] |  |  | > 10 µM | > 10 µM
CC(C)CCNc1ncnc2c1sc1nc3c(cc12)COC(C)(C)C3 [Compound 239] |  |  | > 10 µM | > 10 µM
Cc1nc(NCCc2ccccc2)c2sc3nc4c(cc3c2n1)COC(C)(C)C4 [Compound 240] |  |  | 3 to 10 µM | > 10 µM
CCCCCCCNc1nc(C)nc2c1sc1nc3c(cc12)COC(C)(C)C3 [Compound 241] |  |  | > 10 µM | > 10 µM
CCCCN(C)c1nc(C)nc2c1sc1nc3c(cc12)COC(C)(C)C3 [Compound 242] |  |  | > 10 µM | > 10 µM
CCCCCNc1ncnc2c1sc1nc3c(cc12)COC(C)(C)C3 [Compound 243] |  |  | 3 to 10 µM | 3 to 10 µM
Cc1nc(NN)c2sc3nc4c(cc3c2n1)COC(C)(C)C4 [Compound 244] |  |  | > 10 µM | > 10 µM
CC1CCN(c2ncnc3c2sc2nc4c(cc23)COC(C)(C)C4)CC1 [Compound 245] |  |  | > 10 µM | > 10 µM
CCCCCCCCNc1ncnc2c1sc1nc3c(cc12)COC(C)(C)C3 [Compound 246] |  |  | > 10 µM | > 10 µM
CC1(C)Cc2nc3sc4c(NCC5CCCO5)ncnc4c3cc2CO1 (centres unmarked) [Compound 247] |  |  | 3 to 10 µM | > 10 µM
CCCN(CCC)c1nc(C)nc2c1sc1nc3c(cc12)COC(C)(C)C3 [Compound 248] |  |  | > 10 µM | > 10 µM
CCCCCCCCCNc1ncnc2c1sc1nc3c(cc12)COC(C)(C)C3 [Compound 249] |  |  | > 10 µM | > 10 µM
Cc1nc(NCCO)c2sc3nc4c(cc3c2n1)COC(C)(C)C4 [Compound 250] |  |  | > 10 µM | > 10 µM
Cc1nc(NCCC(C)C)c2sc3nc4c(cc3c2n1)COC(C)(C)C4 [Compound 251] |  |  | > 10 µM | > 10 µM
Cc1nc(NC(C)CCc2ccccc2)c2sc3nc4c(cc3c2n1)COC(C)(C)C4 (centres unmarked) [Compound 252] |  | > 10 µM | > 10 µM | 
CCN(CC)c1nc(C)nc2c1sc1nc3c(cc12)COC(C)(C)C3 [Compound 253] |  |  | > 10 µM | > 10 µM
Cc1nc(NCc2ccccc2)c2sc3nc4c(cc3c2n1)COC(C)(C)C4 [Compound 254] |  |  | > 10 µM | > 10 µM
CCCCCCCNc1ncnc2c1sc1nc3c(cc12)COC(C)(C)C3 [Compound 255] |  |  | > 10 µM | > 10 µM
CCCCN(CC)c1ncnc2c1sc1nc3c(cc12)COC(C)(C)C3 [Compound 256] |  |  | 3 to 10 µM | 3 to 10 µM

SMILES | EC50 [1] | EC50 (SDH-WT cells) | EC50 ([1]; Mus musculus, 72 h) | EC50 (SDH-WT cells; Mus musculus, 72 h)
CC1(C)Cc2nc3sc4c(NCCO)ncnc4c3cc2CO1 [Compound 257] |  |  | > 10 µM | > 10 µM
CCCCN(CCCC)c1ncnc2c1sc1nc3c(cc12)COC(C)(C)C3 [Compound 258] |  |  | > 10 µM | > 10 µM
CC(C)(C)Nc1ncnc2c1sc1nc3c(cc12)COC(C)(C)C3 [Compound 259] |  |  | > 10 µM | > 10 µM
CC1(C)Cc2nc3sc4c(NCCc5ccccc5)ncnc4c3cc2CO1 [Compound 260] |  |  | > 10 µM | > 10 µM
CC1(C)Cc2nc3sc4c(NC5CCCCC5)ncnc4c3cc2CO1 [Compound 261] |  |  | > 10 µM | > 10 µM
CCCCCNc1nc(C)nc2c1sc1nc3c(cc12)COC(C)(C)C3 [Compound 262] |  |  | > 10 µM | > 10 µM
Cc1nc(N2CCC(C)CC2)c2sc3nc4c(cc3c2n1)COC(C)(C)C4 [Compound 263] |  |  | > 10 µM | > 10 µM
Cc1nc(NC2CCCCC2)c2sc3nc4c(cc3c2n1)COC(C)(C)C4 [Compound 264] |  |  | 3 to 10 µM | > 10 µM
Cc1nc(NC(C)CCc2ccccc2)c2sc3nc4c(cc3c2n1)COC(C)(C)C4 (centres unmarked) [Compound 265] | > 10 µM | 3 to 10 µM |  | 
Cc1nc(NC(C)Cc2ccccc2)c2sc3nc4c(cc3c2n1)COC(C)(C)C4 (centres unmarked) [Compound 266] |  |  | > 10 µM | 3 to 10 µM
CC1(C)Cc2nc3sc4c(NCCN5CCOCC5)ncnc4c3cc2CO1 [Compound 267] |  |  | > 10 µM | > 10 µM
Cc1nc(N2CCCC2)c2sc3nc4c(cc3c2n1)COC(C)(C)C4 [Compound 268] |  |  | > 10 µM | > 10 µM
CCCCN(CC)c1nc(C)nc2c1sc1nc3c(cc12)COC(C)(C)C3 [Compound 269] |  |  | > 10 µM | > 10 µM
CC1(C)Cc2nc3sc4c(N(CCO)Cc5ccccc5)ncnc4c3cc2CO1 [Compound 271] |  |  | > 10 µM | 3 to 10 µM
Cc1nc(NC(C)c2ccccc2)c2sc3nc4c(cc3c2n1)COC(C)(C)C4 (centres unmarked) [Compound 272] |  |  | > 10 µM | > 10 µM
COc1ccc(CCNc2nc(C)nc3c2sc2nc4c(cc23)COC(C)(C)C4)cc1OC [Compound 273] |  |  | 3 to 10 µM | > 10 µM
CC(Nc1ncnc2c1sc1nc3c(cc12)COC(C)(C)C3)c1ccccc1 (centres unmarked) [Compound 274] |  |  | > 10 µM | > 10 µM
CC1(C)Cc2nc3sc4c(N(CCO)CCO)ncnc4c3cc2CO1 [Compound 275] |  |  | > 10 µM | > 10 µM
